# Test results from patent US20150031668A1, “CHROMAN DERIVATIVES AS TRPM8 INHIBITORS” (AMGEN INC., priority 2013, published 2015).
# Experiments:
# [1] = molecular target: T1, human TRPM8 (Homo sapiens, UniProt Q7Z2W7); experiment: Luminescence readout assay for measuring intracellular calcium (aequorin, CHO cells expressing human TRPM8; icilin, L-menthol or cold activation); type: cell-based; details: CHO cells expressing human TRPM8, icilin activation (1 μM), aequorin luminescence; read-out: hTRPM8 IC50
# T1 construct: expressed in transfected cells; host or cells: Chinese hamster ovary (CHO) cells, T-REx tetracycline-inducible expression system (Invitrogen); co-transfected with pcDNA3.1 aequorin
# Method in brief: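 Activation was by 1 μM icilin, 100 μM L-menthol (test compound 2.5 min ahead) or cold buffer below 10° C (compound 1 min ahead). Calcium rise measured as aequorin luminescence in CHO cells with tetracycline-inducible human TRPM8.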
# [2] = test system: icilin induced wet-dog shakes; experiment: Inhibition of icilin induced shaking (wet-dog shakes) in rats; type: in vivo, male Sprague Dawley rats; details: po; rat, dose 1 mg/kg
# Experimental: Inhibition of Icilin Induced Shaking in Rats
# Example compounds at doses ranging from 0.01 to 3 mg/kg (p.o, suspended in 5% Tween80/Oralplus or suspended in 2% HPMC-1% Tween-80 pH2.2 with MSA, 5 mL/kg) can be administered to male Sprague Dawley rats (200-300 g, Harlan, n=6-8/treatment) 2 h before icilin to assess the ability to block the spontaneous wet-dog shake phenomena induced by icilin (i.p., suspended in 100% PEG400 at 0.5 mg/kg, 1 mL/kg or p.o., suspended in 2% HPMC-1% Tween-80 at 3 mg/kg, 2.5 mL/kg). Spontaneous wet-dog shakes may be counted manually by two blinded observers or using LABORAS automation (Metris) for 30 min post-icilin. The synthesized and prophetic example compounds may be measured using these procedures and will be found to reduce the spontaneous wet dog shake phenomena induced by icilin.
# T1 sequence (Q7Z2W7 whole entry): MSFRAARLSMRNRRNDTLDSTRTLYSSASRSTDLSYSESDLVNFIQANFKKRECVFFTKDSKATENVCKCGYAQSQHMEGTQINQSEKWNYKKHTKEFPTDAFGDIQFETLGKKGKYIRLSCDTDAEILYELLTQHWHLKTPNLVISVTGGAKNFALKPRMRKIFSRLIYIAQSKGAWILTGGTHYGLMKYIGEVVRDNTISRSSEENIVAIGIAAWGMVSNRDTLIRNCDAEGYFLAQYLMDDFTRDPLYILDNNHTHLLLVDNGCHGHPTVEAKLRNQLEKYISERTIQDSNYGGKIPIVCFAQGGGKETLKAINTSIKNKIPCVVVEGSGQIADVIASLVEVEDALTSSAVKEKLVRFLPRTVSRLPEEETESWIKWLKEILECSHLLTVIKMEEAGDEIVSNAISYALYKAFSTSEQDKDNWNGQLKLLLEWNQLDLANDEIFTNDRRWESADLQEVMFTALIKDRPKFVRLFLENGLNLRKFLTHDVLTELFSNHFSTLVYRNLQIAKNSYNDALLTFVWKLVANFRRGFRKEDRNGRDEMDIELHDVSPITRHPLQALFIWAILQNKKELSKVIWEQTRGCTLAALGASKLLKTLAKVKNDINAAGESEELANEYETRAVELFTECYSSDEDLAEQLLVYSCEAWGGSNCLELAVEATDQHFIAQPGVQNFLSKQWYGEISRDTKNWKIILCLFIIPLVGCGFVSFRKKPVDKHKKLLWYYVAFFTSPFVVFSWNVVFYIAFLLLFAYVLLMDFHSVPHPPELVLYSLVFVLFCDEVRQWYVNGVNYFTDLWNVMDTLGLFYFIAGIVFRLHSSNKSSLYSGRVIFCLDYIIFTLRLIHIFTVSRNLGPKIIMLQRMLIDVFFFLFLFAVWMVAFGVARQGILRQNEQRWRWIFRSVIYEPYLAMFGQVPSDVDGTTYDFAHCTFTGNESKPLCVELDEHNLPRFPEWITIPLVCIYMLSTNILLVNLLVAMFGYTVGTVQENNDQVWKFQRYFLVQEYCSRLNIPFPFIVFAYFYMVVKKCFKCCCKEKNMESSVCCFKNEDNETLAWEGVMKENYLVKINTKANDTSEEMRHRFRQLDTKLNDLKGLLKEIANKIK
Compound,IC50 [1] [nM],inhibition in vivo at 1 mg/kg [2] [%]
"O=C(N[C@]1(c2ccc(OC(F)(F)F)c(F)c2)CCOc2cccnc21)c1ccc2[nH]c(=O)oc2c1 (single isomer, unassigned) [Example 21]",7,98
"O=C(N[C@]1(c2ccc(OC(F)(F)F)cc2)CCOc2cccnc21)c1ccc(=O)[nH]c1 (single isomer, unassigned) [Example 58]",21,97
"N#Cc1ccc(-c2ccc([C@@]3(NC(=O)c4ccc5oc(=O)[nH]c5c4)CCOc4cccnc43)cc2)cc1 [Example 155, (S)—N-(4-(4′-cyano-[1,1′-biphenyl]-4-yl)-3,4-dihydro-2H-pyrano[3,2-b]pyridin-4-yl)-2-oxo-2,3-dihydrobenzo[d]oxazole-5-carboxamide 2,2,2-trifluoroacetate]",16,60
"O=C(O)c1ccc(C(=O)N[C@]2(c3ccc(OC(F)(F)F)c(F)c3)CCOc3cccnc32)cc1 [Example 204, (S)-4-((4-(3-fluoro-4-(trifluoromethoxy)phenyl)-3,4-dihydro-2H-pyrano[3,2-b]pyridin-4-yl)carbamoyl) benzoic acid]",7,98
"C=Cc1cc(C(=O)N[C@]2(c3ccc(OC(F)(F)F)c(F)c3)CCOc3cccnc32)ccc1C(=O)O [Example 289, (S)-4-((4-(3-fluoro-4-(trifluoromethoxy)phenyl)-3,4-dihydro-2H-pyrano[3,2-b]pyridin-4-yl)carbamoyl)-2-vinylbenzoic acid]",18,93
"CC(=O)Nc1cc(C(=O)N[C@]2(c3ccc(OC(F)(F)F)c(F)c3)CCOc3cccnc32)ccc1C(=O)O [Example 323, (S)-2-acetamido-4-((4-(3-fluoro-4-(trifluoro-methoxy)phenyl)-3,4-dihydro-2H-pyrano[3,2-b]pyridin-4-yl)carbamoyl) benzoic acid]",316,–
"Cn1c(C(=O)O)ccc1C(=O)N[C@]1(c2ccc(OC(F)(F)F)c(F)c2)CCOc2cccnc21 [Example 324, (S)-5-((4-(3-fluoro-4-(trifluoro-methoxy)phenyl)-3,4-dihydro-2H-pyrano[3,2-b]pyridin-4-yl)carbamoyl)-1-methyl-1H-pyrrole-2-carboxylic acid]",103,–
"O=C(N[C@]1(c2ccc(OC(F)(F)F)c(F)c2)CCOc2cccnc21)c1ccc2cc(C(=O)O)[nH]c2c1 [Example 325, (S)-6-((4-(3-fluoro-4-(trifluoro-methoxy)phenyl)-3,4-dihydro-2H-pyrano[3,2-b]pyridin-4-yl)carbamoyl)-1H-indole-2-carboxylic acid]",118,–
"O=C(N[C@]1(c2ccc(OC(F)(F)F)c(F)c2)CCOc2cccnc21)c1csc(C(=O)O)n1 [Example 329, (S)-4-((4-(3-fluoro-4-(trifluoro-methoxy)phenyl)-3,4-dihydro-2H-pyrano[3,2-b]pyridin-4-yl)carbamoyl) thiazole-2-carboxylic acid]",231,–
"O=C(O)c1ccnc(C(=O)N[C@]2(c3ccc(OC(F)(F)F)c(F)c3)CCOc3cccnc32)c1 [Example 330, (S)-2-((4-(3-fluoro-4-(trifluoro-methoxy)phenyl)-3,4-dihydro-2H-pyrano[3,2-b]pyridin-4-yl)carbamoyl) isonicotinic acid]",94,–
"O=C(N[C@]1(c2ccc(OC(F)(F)F)c(F)c2)CCOc2cccnc21)c1ccc(C(=O)O)c(F)c1 [Example 331, (S)-2-fluoro-4-((4-(3-fluoro-4-(trifluoromethoxy)phenyl)-3,4-dihydro-2H-pyrano[3,2-b]pyridin-4-yl)carbamoyl) benzoic acid]",34,–
"Cc1cc(C(=O)N[C@]2(c3ccc(OC(F)(F)F)c(F)c3)CCOc3cccnc32)ncc1C(=O)O [Example 333, (S)-6-((4-(3-fluoro-4-(trifluoromethoxy)phenyl)-3,4-dihydro-2H-pyrano[3,2-b]pyridin-4-yl)carbamoyl)-4-methylnicotinic acid]",25,–
"O=C(O)c1c[nH]c(C(=O)N[C@]2(c3ccc(OC(F)(F)F)c(F)c3)CCOc3cccnc32)c1 [Example 334, (S)-5-((4-(3-fluoro-4-(trifluoromethoxy)phenyl)-3,4-dihydro-2H-pyrano[3,2-b]pyridin-4-yl)carbamoyl)-1H-pyrrole-3-carboxylic acid]",1010,–
"Cn1cc(C(=O)O)cc1C(=O)N[C@]1(c2ccc(OC(F)(F)F)c(F)c2)CCOc2cccnc21 [Example 335, (S)-5-((4-(3-fluoro-4-(trifluoromethoxy)phenyl)-3,4-dihydro-2H-pyrano[3,2-b]pyridin-4-yl)carbamoyl)-1-methyl-1H-pyrrole-3-carboxylic acid]",51,–
"O=C(O)c1ccc(C(=O)N[C@]2(c3ccc(OC(F)(F)F)c(F)c3)CCOc3cccnc32)s1 [Example 336, (S)-5-((4-(3-fluoro-4-(trifluoromethoxy)phenyl)-3,4-dihydro-2H-pyrano[3,2-b]pyridin-4-yl)carbamoyl) thiophene-2-carboxylic acid 2,2,2-trifluoroacetate]",86,–
"COc1cc(C(=O)N[C@]2(c3ccc(OC(F)(F)F)c(F)c3)CCOc3cccnc32)ccc1C(=O)O [Example 337, (S)-4-((4-(3-fluoro-4-(trifluoromethoxy)phenyl)-3,4-dihydro-2H-pyrano[3,2-b]pyridin-4-yl)carbamoyl)-2-methoxybenzoic acid]",70,–

# Continued by falling IC50 [1], values first:
IC50 [1] [nM],Compound,inhibition in vivo at 1 mg/kg [2] [%]
1560,"O=C(N[C@]1(c2ccc(OC(F)(F)F)c(F)c2)CCOc2cccnc21)c1ccc(C(=O)O)nc1 [Example 328, (S)-5-((4-(3-fluoro-4-(trifluoro-methoxy)phenyl)-3,4-dihydro-2H-pyrano[3,2-b]pyridin-4-yl)carbamoyl) picolinic acid 2,2,2-trifluoroacetate]",–
44,"O=C(N[C@]1(c2ccc(OC(F)(F)F)c(F)c2)CCOc2cccnc21)c1ccc(-c2noc(=O)[nH]2)cn1 [Example 283, (S)—N-(4-(3-fluoro-4-(trifluoromethoxy)phenyl)-3,4-dihydro-2H-pyrano[3,2-b]pyridin-4-yl)-5-(5-oxo-4,5-dihydro-1,2,4-oxadiazol-3-yl)picolinamide]",78
28,"O=C(Nc1ncccn1)N[C@]1(c2ccc(OC(F)(F)F)c(F)c2)CCOc2cccnc21 [Example 83, (S)-1-(4-(3-fluoro-4-(trifluoromethoxy)phenyl)-3,4-dihydro-2H-pyrano[3,2-b]pyridin-4-yl)-3-(pyrimidin-2-yl)urea]",59
21,"O=C(N[C@]1(c2ccc(C(F)(F)F)c(F)c2)CCOc2cccnc21)c1ccc(=O)[nH]c1 [Example 170, (S)-N-(4-(3-fluoro-4-(trifluoromethyl)phenyl)-3,4-dihydro-2H-pyrano[3,2-b]pyridin-4-yl)-6-oxo-1,6-dihydropyridine-3-carboxamide]",90
14,O=C(O)c1ccc(C(=O)N[C@]2(c3ccc(OC(F)(F)F)c(F)c3)CCOc3cccnc32)nc1 [Example 75],99
13,"O=C(N[C@]1(c2ccc(OC(F)(F)F)c(F)c2)CCOc2cccnc21)c1ccc(=O)[nH]c1 [Example 59, (S)—N-(4-(3-fluoro-4-(trifluoromethoxy)phenyl)-3,4-dihydro-2H-pyrano[3,2-b]pyridin-4-yl)-6-oxo-1,6-dihydropyridine-3-carboxamide]",99
12,"O=C(Nc1cncnc1)N[C@]1(c2ccc(OC(F)(F)F)c(F)c2)CCOc2cccnc21 [Example 85, (S)-1-(4-(3-fluoro-4-(trifluoromethoxy)phenyl)-3,4-dihydro-2H-pyrano[3,2-b]pyridin-4-yl)-3-(pyrimidin-5-yl)urea]",72
9,"Cn1c(C(=O)O)cc2ccc(C(=O)N[C@]3(c4ccc(OC(F)(F)F)c(F)c4)CCOc4cccnc43)cc21 [Example 322, (S)-6-((4-(3-fluoro-4-(trifluoro-methoxy)phenyl)-3,4-dihydro-2H-pyrano[3,2-b]pyridin-4-yl)carbamoyl)-1-methyl-1H-indole-2-carboxylic acid]",–
8,"O=C(N[C@]1(c2ccc(OC(F)(F)F)c(F)c2)CCOc2cccnc21)c1c[nH]c(=O)cn1 [Example 50, (S)-N-(4-(3-fluoro-4-(trifluoromethoxy)phenyl)-3,4-dihydro-2H-pyrano[3,2-b]pyridin-4-yl)-5-oxo-4,5-dihydropyrazine-2-carboxamide]",67
6,"O=C(N[C@]1(c2ccc(C(F)(F)F)cc2)CCOc2cccnc21)c1ccc2oc(=O)[nH]c2c1 [Example 61, (S)-2-oxo-N-(4-(4-(trifluoromethyl)phenyl)-3,4-dihydro-2H-pyrano[3,2-b]pyridin-4-yl)-2,3-dihydrobenzo[d]oxazole-5-carboxamide]",80
6,"O=C(N[C@]1(c2ccc(OC(F)(F)F)c(F)c2)CCOc2cccnc21)c1ccc(CO)cc1 [Example 158, (S)—N-(4-(3-fluoro-4-(trifluoromethoxy)phenyl)-3,4-dihydro-2H-pyrano[3,2-b]pyridin-4-yl)-4-(hydroxymethyl)benzamide]",92
